Measurements published in patent US11254686B1 (Corvus Pharmaceuticals, Inc., priority 2017, dated 2022).

Key:
Type in all cases: biochemical
adenosine A2B receptor = adenosine A2B receptor (Homo sapiens (Human), UniProt P29275); assay: Adenosine receptor activity assay (Table 1), A2B activity; conditions: for Ratio: A2A activity to the A2B activity, A2A/A2B; for IC50: read-out: Ave A2B cAMP IC50
adenosine A2A receptor = adenosine A2A receptor (Homo sapiens (Human), UniProt P29274); assay: Adenosine receptor activity assay (Table 1), A2A activity; conditions: read-out: Ave A2A cAMP IC50
Sequence of adenosine A2A receptor (P29274 whole entry): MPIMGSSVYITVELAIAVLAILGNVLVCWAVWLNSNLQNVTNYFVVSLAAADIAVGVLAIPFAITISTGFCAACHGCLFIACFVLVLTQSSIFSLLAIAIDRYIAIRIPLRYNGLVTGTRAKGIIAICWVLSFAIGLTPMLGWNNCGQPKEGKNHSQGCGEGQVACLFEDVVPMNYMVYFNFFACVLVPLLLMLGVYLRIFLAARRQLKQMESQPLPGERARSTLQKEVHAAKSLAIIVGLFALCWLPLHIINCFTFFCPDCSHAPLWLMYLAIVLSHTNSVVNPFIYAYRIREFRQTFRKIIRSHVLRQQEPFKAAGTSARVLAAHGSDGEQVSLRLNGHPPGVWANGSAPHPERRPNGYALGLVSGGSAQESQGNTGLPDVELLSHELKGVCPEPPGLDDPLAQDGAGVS

adenosine A1 receptor = adenosine A1 receptor (Homo sapiens (Human), UniProt P30542); assay: Adenosine receptor activity assay (Table 1), A1 cAMP
Sequence of adenosine A1 receptor (P30542 whole entry): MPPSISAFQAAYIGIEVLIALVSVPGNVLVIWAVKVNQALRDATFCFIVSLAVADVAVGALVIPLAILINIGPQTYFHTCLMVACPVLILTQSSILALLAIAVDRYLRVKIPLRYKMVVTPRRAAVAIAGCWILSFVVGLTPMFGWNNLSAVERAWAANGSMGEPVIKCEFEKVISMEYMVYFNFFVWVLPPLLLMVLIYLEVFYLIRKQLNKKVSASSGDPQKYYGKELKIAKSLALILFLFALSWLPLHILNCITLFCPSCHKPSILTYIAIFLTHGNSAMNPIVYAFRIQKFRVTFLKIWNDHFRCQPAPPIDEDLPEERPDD
Protocol: (§1) Table 1. Compounds (e.g., Adenosine Receptor modulators) and activity assay results. The legend is as follows: A=<10 nM; B=10-50 nM; C=50-100 nM; D=100-500; and E=>500 nM. The ratio corresponds to the A2A activity to the A2B activity; or A2A/A2B.

adenosine A3 receptor = adenosine A3 receptor (Homo sapiens (Human), UniProt P0DMS8); assay: Adenosine receptor activity assay (Table 1), A3 cAMP
Sequence of adenosine A3 receptor (P0DMS8 whole entry): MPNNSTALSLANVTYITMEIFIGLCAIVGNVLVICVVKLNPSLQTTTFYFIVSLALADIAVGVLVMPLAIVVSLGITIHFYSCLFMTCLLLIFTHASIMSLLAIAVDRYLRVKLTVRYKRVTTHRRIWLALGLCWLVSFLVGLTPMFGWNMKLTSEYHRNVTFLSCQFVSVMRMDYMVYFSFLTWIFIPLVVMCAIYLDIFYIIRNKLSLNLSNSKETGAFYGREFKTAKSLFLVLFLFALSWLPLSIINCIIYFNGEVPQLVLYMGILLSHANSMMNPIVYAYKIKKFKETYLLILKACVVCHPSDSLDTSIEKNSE
Protocol: as §1

Sequence of adenosine A2B receptor (P29275 whole entry): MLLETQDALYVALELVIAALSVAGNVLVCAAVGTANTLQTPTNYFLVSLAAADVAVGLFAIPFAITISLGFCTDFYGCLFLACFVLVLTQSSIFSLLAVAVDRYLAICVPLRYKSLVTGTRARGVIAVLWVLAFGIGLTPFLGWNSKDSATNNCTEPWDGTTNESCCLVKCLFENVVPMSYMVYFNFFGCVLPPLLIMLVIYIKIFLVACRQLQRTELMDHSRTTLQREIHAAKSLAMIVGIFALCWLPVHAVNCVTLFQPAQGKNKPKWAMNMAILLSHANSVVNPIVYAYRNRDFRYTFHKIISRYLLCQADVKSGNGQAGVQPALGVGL

SMILES | Ratio (adenosine A2B receptor) | IC50 (adenosine A2B receptor) [nM] | IC50 (adenosine A2A receptor) [nM] | IC50 (adenosine A1 receptor) [nM] | IC50 (adenosine A3 receptor) [nM]
COC[C@@H]1CCN(C(=O)c2nc(N[C@@H](C)c3ccccn3)nc3cc(C)sc23)C1 [Example Z467, ((R)-3-(Methoxymethyl)pyrrolidin-1-yl)(6-methyl-2-(((S)-1-(pyridin-2-yl)ethyl)amino)thieno[3,2-d]pyrimidin-4-yl)methanone] | 4.90 | 10 to 50 | 100 to 500 | > 500 | 50 to 100
COC[C@H]1CCN(C(=O)c2nc(N[C@@H](C)c3ccccn3)nc3cc(C)sc23)C1 [Example Z468, ((S)-3-(Methoxymethyl)pyrrolidin-1-yl)(6-methyl-2-(((S)-1-(pyridin-2-yl)ethyl)amino)thieno[3,2-d]pyrimidin-4-yl)methanone] | 24.67 | 10 to 50 | > 500 | > 500 | > 500
COc1ccc(CNC(=O)c2nc(N[C@@H](C)c3ccccn3)nc3cc(C)sc23)cn1 [Example Z469, (S)—N-((6-Methoxypyridin-3-yl)methyl)-6-methyl-2-((1-(pyridin-2-yl)ethyl)amino)thieno[3,2-d]pyrimidine-4-carboxamide] | 36.71 | 10 to 50 | > 500 | > 500 | > 500
Cc1cc2nc(N[C@@H](C)c3cncc(F)c3)nc(C(=O)N3CC[C@H](NC(=O)OCc4ccccc4)C3)c2s1 [Example Z473, Benzyl ((S)-1-(2-(((S)-1-(5-fluoropyridin-3-yl)ethyl)amino)-6-methylthieno[3,2-d]pyrimidine-4-carbonyl)pyrrolidin-3-yl)carbamate] | 20.60 | 10 to 50 | > 500 | > 500 | > 500
Cc1cc2nc(N[C@@H](C)c3cncc(F)c3)nc(C(=O)N3CC(CNC(=O)OC(C)(C)C)C3)c2s1 [Example Z475, tert-Butyl (S)-((1-(2-((1-(5-fluoropyridin-3-yl)ethyl)amino)-6-methylthieno[3,2-d]pyrimidine-4-carbonyl)azetidin-3-yl)methyl)carbamate] | 7.45 | 10 to 50 | 100 to 500 | > 500 | > 500
Cc1cc2nc(N[C@@H](C)c3ccccn3)nc(C(=O)N3CC(CNC(=O)OC(C)(C)C)C3)c2s1 [Example Z476, tert-Butyl (S)-((1-(6-methyl-2-((1-(pyridin-2-yl)ethyl)amino)thieno[3,2-d]pyrimidine-4-carbonyl)azetidin-3-yl)methyl)carbamate] | 5.27 | 10 to 50 | 100 to 500 | > 500 | > 500
COc1ccc(CNC(=O)c2nc(N[C@@H](C)c3ccccn3)nc3cc(C)sc23)cc1 [Example Z477, (S)—N-(4-Methoxybenzyl)-6-methyl-2-((1-(pyridin-2-yl)ethyl)amino)thieno[3,2-d]pyrimidine-4-carboxamide] | 9.73 | 10 to 50 | 100 to 500 | 50 to 100 | 50 to 100
Cc1cc2nc(N[C@@H](C)c3cncc(F)c3)nc(C(=O)N3CC(CN)C3)c2s1 [Example Z478, (S)-(3-(Aminomethyl)azetidin-1-yl)(2-((1-(5-fluoropyridin-3-yl)ethyl)amino)-6-methylthieno[3,2-d]pyrimidin-4-yl)methanone] | 167.42 | 10 to 50 | > 500 | > 500 | > 500
Cc1cc2nc(N[C@@H](C)c3ccccn3)nc(C(=O)N3CC(CN)C3)c2s1 [Example Z479, (S)-(3-(Aminomethyl)azetidin-1-yl)(6-methyl-2-((1-(pyridin-2-yl)ethyl)amino)thieno[3,2-d]pyrimidin-4-yl)methanone] | 96.36 | 10 to 50 | > 500 | > 500 | > 500
Cc1cc2nc(N[C@@H](C)c3ccccn3)nc(C(N)=O)c2s1 [Example Z480, (S)-6-Methyl-2-((1-(pyridin-2-yl)ethyl)amino)thieno[3,2-d]pyrimidine-4-carboxamide] | 47.68 | 10 to 50 | > 500 | > 500 | > 500
Cc1cc2nc(N[C@@H](C)c3cncc(F)c3)nc(C(=O)N3CC(N(C)C)C3)c2s1 [Example Z481, (S)-(3-(Dimethylamino)azetidin-1-yl)(2-((1-(5-fluoropyridin-3-yl)ethyl)amino)-6-methylthieno[3,2-d]pyrimidin-4-yl)methanone] | 111.93 | 10 to 50 | > 500 | > 500 | > 500
COC1(C)CN(C(=O)c2nc(N[C@@H](C)c3ccccn3)nc3cc(C)sc23)C1 [Example Z483, (S)-(3-Methoxy-3-methylazetidin-1-yl)(6-methyl-2-((1-(pyridin-2-yl)ethyl)amino)thieno[3,2-d]pyrimidin-4-yl)methanone] | 30.60 | 10 to 50 | 100 to 500 | > 500 | > 500
Cc1cc2nc(N[C@@H](C)c3cncc(F)c3)nc(C(=O)NCCC3CN(C(=O)OC(C)(C)C)C3)c2s1 [Example Z485, tert-Butyl (S)-3-(2-(2-((1-(5-fluoropyridin-3-yl)ethyl)amino)-6-methylthieno[3,2-d]pyrimidine-4-carboxamido)ethyl)azetidine-1-carboxylate] | 8.16 | 10 to 50 | 100 to 500 | 100 to 500 | > 500
CC(=O)Nc1ccc(CCNC(=O)c2nc(N[C@@H](C)c3cncc(F)c3)nc3cc(C)sc23)cc1 [Example Z488, (S)—N-(4-Acetamidophenethyl)-2-((1-(5-fluoropyridin-3-yl)ethyl)amino)-6-methylthieno[3,2-d]pyrimidine-4-carboxamide] | 147.08 | < 10 | > 500 | > 500 | > 500
Cc1cc2nc(N[C@@H](C)c3cncc(F)c3)nc(C(=O)NCC[C@@H]3CCNC3)c2s1 [Example Z489, 2-(((S)-1-(5-Fluoropyridin-3-yl)ethyl)amino)-6-methyl-N-(2-((S)-pyrrolidin-3-yl)ethyl)thieno[3,2-d]pyrimidine-4-carboxamide] | 365.84 | 10 to 50 | > 500 | > 500 | > 500
Cc1cc2nc(N[C@@H](C)c3cncc(F)c3)nc(C(=O)N3CC(CNC(=O)C(C)(C)C)C3)c2s1 [Example Z490, (S)—N-((1-(2-((1-(5-Fluoropyridin-3-yl)ethyl)amino)-6-methylthieno[3,2-d]pyrimidine-4-carbonyl)azetidin-3-yl)methyl)pivalamide] | 10.96 | 10 to 50 | 100 to 500 | > 500 | > 500
Cc1cc2nc(N[C@@H](C)c3cncc(F)c3)nc(C(=O)N3CC[C@@H](NC(=O)OCc4ccccc4)C3)c2s1 [Example Z491, Benzyl ((R)-1-(2-(((S)-1-(5-fluoropyridin-3-yl)ethyl)amino)-6-methylthieno[3,2-d]pyrimidine-4-carbonyl)pyrrolidin-3-yl)carbamate] | 86.94 | 10 to 50 | > 500 | > 500 | > 500
Cc1cc2nc(N[C@@H](C)c3ccccn3)nc(C(=O)NCc3nccs3)c2s1 [Example Z492, (S)-6-Methyl-2-((1-(pyridin-2-yl)ethyl)amino)-N-(thiazol-2-ylmethyl)thieno[3,2-d]pyrimidine-4-carboxamide] | 8.25 | 10 to 50 | 100 to 500 | > 500 | 10 to 50
Cc1cc2nc(N[C@@H](C)c3cncc(F)c3)nc(C(=O)N3CC(CO)C3)c2s1 [Example Z494, (S)-(2-((1-(5-Fluoropyridin-3-yl)ethyl)amino)-6-methylthieno[3,2-d]pyrimidin-4-yl)(3-(hydroxymethyl)azetidin-1-yl)methanone] | 146.92 | < 10 | 100 to 500 | > 500 | > 500
CCNC(=O)CC1CN(C(=O)c2nc(N[C@@H](C)c3cncc(F)c3)nc3cc(C)sc23)C1 [Example Z495, (S)—N-Ethyl-2-(1-(2-((1-(5-fluoropyridin-3-yl)ethyl)amino)-6-methylthieno[3,2-d]pyrimidine-4-carbonyl)azetidin-3-yl)acetamide] | 23.37 | < 10 | 50 to 100 | > 500 | 50 to 100
Cc1cc2nc(N[C@@H](C)c3cncc(F)c3)nc(C(=O)NCCC3CCNCC3)c2s1 [Example Z496, (S)-2-((1-(5-Fluoropyridin-3-yl)ethyl)amino)-6-methyl-N-(2-(piperidin-4-yl)ethyl)thieno[3,2-d]pyrimidine-4-carboxamide] | 524.78 | 10 to 50 | > 500 | > 500 | > 500
Cc1cc2nc(N[C@@H](C)c3cncc(F)c3)nc(C(=O)N3CC(C(N)=O)C3)c2s1 [Example Z504, (S)-1-(2-((1-(5-Fluoropyridin-3-yl)ethyl)amino)-6-methylthieno[3,2-d]pyrimidine-4-carbonyl)azetidine-3-carboxamide] | 287.41 | < 10 | > 500 | > 500 | > 500
